Measured values as given in patent US20230203098A1, “HUMAN TRANSFERRIN RECEPTOR BINDING PEPTIDE” (priority 2020, published 2023).
pKd: −log10 of the molar value. Like-named read-outs stand apart in the source and are kept apart here. Where a SMILES comes first, the peptide text is derived from it. Bridges are numbered along the chain shown (N, C = ends). [ ]: non-standard residue; d: D form. NMePhe(3-Cl) = CN[C@@H](Cc1cccc(Cl)c1)C(=O)O; NMeW = CN[C@@H](Cc1c[nH]c2ccccc12)C(=O)O; NMeY = CN[C@@H](Cc1ccc(O)cc1)C(=O)O; PEG4 = NCCOCCOCCOCCOCCC(=O)O

Molecular target: transferrin receptor (hTfR) (Homo sapiens, UniProt P02786)
Sequence (P02786 whole entry): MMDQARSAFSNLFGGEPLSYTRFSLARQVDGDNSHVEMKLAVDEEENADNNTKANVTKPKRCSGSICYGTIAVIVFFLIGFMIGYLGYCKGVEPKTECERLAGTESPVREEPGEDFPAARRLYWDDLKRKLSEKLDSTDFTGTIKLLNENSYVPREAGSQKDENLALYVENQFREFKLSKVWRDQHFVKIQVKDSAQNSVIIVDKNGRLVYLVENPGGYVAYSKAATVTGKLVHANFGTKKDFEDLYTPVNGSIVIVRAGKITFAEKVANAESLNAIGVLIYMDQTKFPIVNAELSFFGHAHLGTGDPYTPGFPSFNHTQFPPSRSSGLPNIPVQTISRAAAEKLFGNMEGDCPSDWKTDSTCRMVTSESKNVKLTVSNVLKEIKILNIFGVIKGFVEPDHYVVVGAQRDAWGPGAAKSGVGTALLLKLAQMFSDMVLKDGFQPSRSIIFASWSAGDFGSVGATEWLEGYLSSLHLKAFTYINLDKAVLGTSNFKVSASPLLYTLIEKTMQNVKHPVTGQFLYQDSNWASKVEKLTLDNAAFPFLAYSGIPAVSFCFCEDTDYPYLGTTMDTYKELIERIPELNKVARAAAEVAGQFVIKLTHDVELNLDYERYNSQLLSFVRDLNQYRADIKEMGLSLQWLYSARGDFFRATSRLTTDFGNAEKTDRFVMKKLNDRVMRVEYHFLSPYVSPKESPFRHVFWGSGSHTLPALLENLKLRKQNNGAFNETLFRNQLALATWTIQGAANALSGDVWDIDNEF
Test: Intermolecular interaction evaluation test between transferrin receptor (hTfR) and peptide by surface plasmon resonance (SPR)
Type: binding
Summary of the method: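 Receptor was Ni-captured and EDC/NHS-fixed on an NTA chip; running buffer HEPES pH 8.0 with NaCl, Tween 20, BSA and 1.0% DMSO.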

[1] = surface plasmon resonance, hTfR, read-out: KD value for hTfR by SPR (class symbol)

| Compound | pKd [1] | other results |
| --- | --- | --- |
| CC[C@H](C)[C@@H]1NC(=O)[C@@H]2CCCCNC(=O)[C@H]3CCCN3C(=O)C[C@H](NC(=O)[C@H](C(C)C)NC(=O)[C@H](C)NC(=O)CSC[C@@H](C(N)=O)NC(=O)[C@H](Cc3ccc(O)cc3)N(C)C(=O)[C@H](Cc3ccc(O)cc3)NC(=O)[C@H](CCCNC(=N)N)NC(=O)[C@H](CCCNC(=N)N)NC(=O)[C@H]([C@@H](C)CC)NC1=O)C(=O)N[C@@H](C(C)C)C(=O)N(C)[C@@H](Cc1c[nH]c3ccccc13)C(=O)N[C@@H](CC(N)=O)C(=O)N[C@@H](Cc1ccc(O)cc1)C(=O)N2 [compound 414] ({CH2CO}-AVDV[NMeW]NYKIIRRY[NMeY]C-NH2; linker 3-8 via dP; thioether N-15) | – | pKd (surface plasmon resonance, peptide vs hTfR, read-out: KD value for hTfR by SPR (class symbol)): 7.00 to 9.00 |
| CC[C@H](C)[C@@H]1NC(=O)[C@H](Cc2ccc(OC)cc2)NC(=O)[C@H](Cc2ccc(O)cc2)NC(=O)[C@H](CC(N)=O)NC(=O)[C@H](Cc2c[nH]c3ccccc23)N(C)C(=O)[C@H](C(C)C)NC(=O)[C@H](Cc2cccc(Cl)c2)N(C)C(=O)[C@H](C(C)C)NC(=O)[C@H](C)NC(=O)CSC[C@@H](C(=O)NCC(=O)NCC(=O)NCC(=O)NCC(=O)N[C@@H](CO)C(=O)N[C@@H](CO)C(=O)N[C@@H](CS)C(N)=O)NC(=O)[C@H](Cc2ccc(O)cc2)N(C)C(=O)[C@H](Cc2ccccc2)NC(=O)[C@@H](CCCNC(=N)N)NC(=O)[C@H](CCCNC(=N)N)NC(=O)[C@H]([C@@H](C)CC)NC1=O [compound 401] | – | pKd: 7.00 to 9.00 |
| CC[C@H](C)[C@@H]1NC(=O)[C@H](Cc2ccc(O)cc2)NC(=O)[C@H](Cc2ccc(O)cc2)NC(=O)[C@H](CC(N)=O)NC(=O)[C@H](Cc2c[nH]c3ccccc23)NC(=O)[C@H](C(C)C)NC(=O)[C@H](Cc2ccccc2)NC(=O)[C@H](C(C)C)NC(=O)[C@H](C)NC(=O)CSC[C@@H](C(N)=O)NC(=O)[C@H](Cc2ccc(O)cc2)N(C)C(=O)[C@H](CCC(=O)O)NC(=O)[C@H](CCCNC(=N)N)NC(=O)[C@H](CCCNC(=N)N)NC(=O)[C@H]([C@@H](C)CC)NC1=O [compound 259] | – | pKd (binding to hTfR by SPR, Table 2 peptides, read-out: KD value (SPR) class): 7.00 to 9.00 |
| CC[C@H](C)[C@@H]1NC(=O)[C@H](Cc2ccc(OC)cc2)NC(=O)[C@H](Cc2ccc(O)cc2)NC(=O)[C@H](CC(N)=O)NC(=O)[C@H](Cc2c[nH]c3ccccc23)N(C)C(=O)[C@H](C(C)C)NC(=O)[C@H](Cc2cccc(Cl)c2)N(C)C(=O)[C@H](C(C)C)NC(=O)[C@H](C)NC(=O)CSC[C@@H](C(=O)NCCOCCOCCOCCOCCC(N)=O)NC(=O)[C@H](Cc2ccc(O)cc2)N(C)C(=O)[C@H](Cc2ccccc2)NC(=O)[C@@H](CCCNC(=N)N)NC(=O)[C@H](CCCCN)NC(=O)[C@H]([C@@H](C)CC)NC1=O [compound 374] ({CH2CO}-AV[NMePhe(3-Cl)]V[NMeW]NYY(Me)IIK[dR]F[NMeY]C[PEG4]-NH2; thioether N-15) | 7.00 to 9.00 | – |

Now from value to compound, other results behind:

| pKd [1] | Compound | other results |
| --- | --- | --- |
| 7.00 to 9.00 | CC[C@H](C)[C@@H]1NC(=O)[C@H](Cc2ccc(OC)cc2)NC(=O)[C@H](Cc2ccc(O)cc2)NC(=O)[C@H](CC(N)=O)NC(=O)[C@H](Cc2c[nH]c3ccccc23)N(C)C(=O)[C@H](C(C)C)NC(=O)[C@H](Cc2cccc(Cl)c2)N(C)C(=O)[C@H](C(C)C)NC(=O)[C@H](C)NC(=O)CSC[C@@H](C(=O)NCCOCCOCCOCCOCCC(N)=O)NC(=O)[C@H](Cc2ccc(O)cc2)N(C)C(=O)[C@H](Cc2ccccc2)NC(=O)[C@@H](CCCNC(=N)N)NC(=O)[C@H](CCCNC(=N)N)NC(=O)[C@H]([C@@H](C)CC)NC1=O [compound 400] | – |
| 7.00 to 9.00 | CC[C@H](C)[C@@H]1NC(=O)[C@H](Cc2ccc(O)cc2)NC(=O)[C@H](Cc2ccc(O)cc2)NC(=O)[C@H](CC(N)=O)NC(=O)[C@H](Cc2c[nH]c3ccccc23)N(C)C(=O)[C@H](C(C)C)NC(=O)[C@H](Cc2cccc(Cl)c2)N(C)C(=O)[C@@H]2CCCC(=O)NCCCC[C@H](NC(=O)[C@H]([C@@H](C)CC)NC1=O)C(=O)N[C@@H](CCCNC(=N)N)C(=O)N[C@@H](Cc1ccc(O)cc1)C(=O)N(C)[C@@H](Cc1ccc(O)cc1)C(=O)N[C@H](C(N)=O)CSCC(=O)N[C@@H](C)C(=O)N2 [compound 409] | – |
